Reference: patent US7348427B2, “Antipathogenic benzamide compounds” (Genesoft Pharmaceuticals, Inc., priority 2001, dated 2008)

What was measured:
[1] = system: Bacillus cereus (ATCC 11778); test: MIC, NCCLS broth microdilution assay; format: cell-based; settings: A = B. cereus ATCC 11778
Text: (§1) In vitro biological activity data were collected for a variety of microorganisms, including Bacillus cereus (ATCC 11778), Staphylococcus aureus (ATCC 27660, a methicillin resistant strain (MRSA); ATCC 13709, a methicillin sensitive strain (MSSA)); Streptococcus pneumoniae (ATCC 51422, a penicillin resistant strain (PRSP)), Enterococcus faecium (ATCC 51559, a vancomycin resistant strain (VRE)), and Staphylococcus epidermidis (ATCC 12228). Additionally, antifungal activity data were collected for Candida albicans (ATCC 38247).
(§2) Compounds according to this invention were screened for their in vitro activities against selected species of bacteria and fungi. The minimal inhibition concentration (MIC) of these compounds was determined using the National Committee for Clinical Laboratory Standards (NCCLS) broth microdilution assay in microtiter plates, as set forth in: (1) the guidelines of the National. Committee for Clinical Laboratory Standards (NCCLS) Document M7-A4 (NCCLS, 1997); (2) the guidelines of the National Committee for Clinical Laboratory Standards (NCCLS) Document M11-A4 (NCCLS, 1997); and (3) the guidelines and reference method of the National Committee for Clinical Laboratory Standards (NCCLS) Document M27-T (NCCLS, 1995). For antifungal assays, the method recommended in Murray, P R., 1995 Manual of Clinical Microbiology (ASM Press, Washington, D.C.), was employed.

[2] = system: Candida albicans (ATCC 38247); test: Antifungal MIC assay; format: cell-based; settings: B = C. albicans ATCC 38247
Text: as §1, §2

E. faecalis ATCC 29212 = test: MIC, NCCLS broth microdilution assay; format: cell-based, Enterococcus faecalis; settings: C = E. faecalis ATCC 29212
Description: as §2

S. pneumoniae ATCC 49619 = test: MIC, NCCLS broth microdilution assay; format: cell-based, Streptococcus pneumoniae; settings: H = S. pneumoniae ATCC 49619
Description: as §2

Row | Structure (SMILES) | Minimum Inhibitory Concentration (MIC) [1] | Minimum Inhibitory Concentration (MIC) [2] | Minimum Inhibitory Concentration (MIC) (E. faecalis ATCC 29212) | Minimum Inhibitory Concentration (MIC) (S. pneumoniae ATCC 49619)
1 | Cn1cc(NC(=O)c2cc(NC(=O)c3cc(NC(=O)c4ccc(Cl)cc4)c[nH]3)cn2C)cc1C(=O)NCCN1CCOCC1 [Compound A-34] | +++ (+++ = MIC ≦ 4) | + (+ = 12 ≦ MIC ≦ 32) | ++ (++ = 4 < MIC < 12) | + (+ = 12 ≦ MIC ≦ 32)
2 | Cn1cc(NC(=O)c2cc(NC(=O)c3ccc(F)cc3F)cn2C)cc1C(=O)NCCN1CCOCC1 [Compound B-2] | ++ (++ = 4 < MIC < 12) | >32 µg/mL | +++ (+++ = MIC ≦ 4) | +++ (+++ = MIC ≦ 4)
3 | Cn1cc(NC(=O)c2cc(NC(=O)c3cc(NC(=O)c4ccc(F)c(F)c4)cn3C)cn2C)cc1C(=O)NCCN1CCOCC1 [Compound B-31] | ++ (++ = 4 < MIC < 12) | >32 µg/mL | +++ (+++ = MIC ≦ 4) | +++ (+++ = MIC ≦ 4)
4 | Cn1cc(NC(=O)c2cc(NC(=O)c3cc(NC(=O)c4cccc(F)c4)cn3C)cn2C)cc1C(=O)NCCN1CCOCC1 [Compound B-38] | + (+ = 12 ≦ MIC ≦ 32) | >32 µg/mL | + (+ = 12 ≦ MIC ≦ 32) | + (+ = 12 ≦ MIC ≦ 32)
5 | Cn1cc(NC(=O)c2cc(NC(=O)c3cc(NC(=O)c4ccc(F)cc4Cl)cn3C)cn2C)cc1C(=O)NCCN1CCOCC1 [Compound B-45] | ++ (++ = 4 < MIC < 12) | >32 µg/mL | ++ (++ = 4 < MIC < 12) | +++ (+++ = MIC ≦ 4)
6 | Cn1cc(NC(=O)c2cc(NC(=O)c3cc(NC(=O)c4ccc(F)c(Cl)c4)cn3C)cn2C)cc1C(=O)NCCN1CCOCC1 [Compound B-46] | +++ (+++ = MIC ≦ 4) | >32 µg/mL | +++ (+++ = MIC ≦ 4) | +++ (+++ = MIC ≦ 4)
7 | Cn1cc(NC(=O)c2cc(NC(=O)c3cc(NC(=O)c4c(Cl)cccc4Cl)cn3C)cn2C)cc1C(=O)NCCN1CCOCC1 [Compound B-52] | >32 µg/mL | >32 µg/mL | >32 µg/mL | >32 µg/mL
8 | Cn1cc(NC(=O)c2cc(NC(=O)c3cc(NC(=O)c4ccc(Cl)cc4Cl)cn3C)cn2C)cc1C(=O)NCCN1CCOCC1 [Compound B-55] | +++ (+++ = MIC ≦ 4) | >32 µg/mL | +++ (+++ = MIC ≦ 4) | +++ (+++ = MIC ≦ 4)
9 | Cn1cc(NC(=O)c2cc(NC(=O)c3ccc(Cl)cc3)cn2C)cc1C(=O)NCCN1CCOCC1 [Compound B-57] | + (+ = 12 ≦ MIC ≦ 32) | >32 µg/mL | +++ (+++ = MIC ≦ 4) | +++ (+++ = MIC ≦ 4)
10 | Cn1cc(NC(=O)c2cc(NC(=O)c3cc(NC(=O)c4cccc(Cl)c4)cn3C)cn2C)cc1C(=O)NCCN1CCOCC1 [Compound B-59] | + (+ = 12 ≦ MIC ≦ 32) | >32 µg/mL | ++ (++ = 4 < MIC < 12) | ++ (++ = 4 < MIC < 12)
